Reference: ChEMBL document CHEMBL3734731 (Medchemcomm, 2015)
Numbered stars: 1 amine (or outer) side, 2 acyl side, 3 side chain; on linkers, the order of the positions; unused ones are H or OH. Square brackets hold non-standard residues; d marks the D form. Peptide text beside a SMILES is read from it. * marks the point of attachment. X1 = NC(=O)N[C@@H](CC(=O)O)C(=O)*; NMeF = CN[C@@H](Cc1ccccc1)C(=O)O; NMeI = CC[C@H](C)[C@H](NC)C(=O)O; Aad = N[C@@H](CCCC(=O)O)C(=O)O; NMeD = CN[C@@H](CC(=O)O)C(=O)O; Methoxyoxalyl = COC(=O)C(=O)*; NMeL = CN[C@@H](CC(C)C)C(=O)O; Suc = O=C(CCC(=O)[*:2])[*:1]; NMeV = CN[C@H](C(=O)O)C(C)C

Columns and labels:
[1] = biological target: T1, Neuromedin-K receptor (Homo sapiens, UniProt P29371); test: Displacement of ([125I]His3-MePhe7)-NKB from NK3 receptor (unknown origin) expressed in CHO cells by scintillation counter; assay type: cell-based
T1 sequence (P29371 whole entry): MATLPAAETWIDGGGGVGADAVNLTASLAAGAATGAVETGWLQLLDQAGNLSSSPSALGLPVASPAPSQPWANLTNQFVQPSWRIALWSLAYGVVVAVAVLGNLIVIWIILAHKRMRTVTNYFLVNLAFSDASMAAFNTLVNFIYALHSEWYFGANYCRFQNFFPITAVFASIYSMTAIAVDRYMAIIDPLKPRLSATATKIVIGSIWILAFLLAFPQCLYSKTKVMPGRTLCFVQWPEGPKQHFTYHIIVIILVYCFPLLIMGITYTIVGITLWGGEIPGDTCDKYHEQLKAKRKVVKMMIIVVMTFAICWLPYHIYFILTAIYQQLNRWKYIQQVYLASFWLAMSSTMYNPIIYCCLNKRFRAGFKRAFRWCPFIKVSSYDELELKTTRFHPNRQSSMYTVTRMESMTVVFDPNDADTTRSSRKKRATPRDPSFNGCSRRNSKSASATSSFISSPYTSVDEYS

[2] = biological target: Substance-P receptor (Homo sapiens, UniProt P25103); test: Displacement of [125I]-BH-SP from NK1 receptor (unknown origin) expressed in CHO cells by scintillation counter; assay type: cell-based
[3] = biological target: T2, Substance-K receptor (Homo sapiens, UniProt P21452); test: Displacement of [125I]-NKA from NK2 receptor (unknown origin) expressed in CHO cells by scintillation counter; assay type: cell-based
T2 sequence (P21452 whole entry): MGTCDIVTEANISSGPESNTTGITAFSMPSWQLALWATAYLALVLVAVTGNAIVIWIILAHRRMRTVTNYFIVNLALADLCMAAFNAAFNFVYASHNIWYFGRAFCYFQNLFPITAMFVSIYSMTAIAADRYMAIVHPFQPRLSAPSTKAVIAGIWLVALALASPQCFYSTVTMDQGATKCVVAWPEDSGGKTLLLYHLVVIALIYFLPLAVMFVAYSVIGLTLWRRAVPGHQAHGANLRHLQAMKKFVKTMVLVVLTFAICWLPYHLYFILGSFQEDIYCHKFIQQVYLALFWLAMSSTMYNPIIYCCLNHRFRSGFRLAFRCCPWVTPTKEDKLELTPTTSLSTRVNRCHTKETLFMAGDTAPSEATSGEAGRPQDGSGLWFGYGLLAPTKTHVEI

[4] = biological target: T1, Neuromedin-K receptor; test: Agonist activity at human NK3 receptor expressed in CHO cells assessed as calcium influx relative to 100 nM senktide; assay type: functional, cell-based
[5] = biological target: T3, Neuromedin-K receptor (Homo sapiens) (UniProt P29371); test: Potency index, ratio of EC50 for […] to EC50 for test compound for agonist activity at human NK3 receptor
T3 sequence (whole entry): T1 sequence (P29371 whole entry)

[6] = biological target: T3, Neuromedin-K receptor (Homo sapiens); test: Potency index, ratio of IC50 for […] to IC50 for test compound for binding affinity to NK3 receptor (unknown origin)

Chain of Substance-P receptor (P25103 whole entry): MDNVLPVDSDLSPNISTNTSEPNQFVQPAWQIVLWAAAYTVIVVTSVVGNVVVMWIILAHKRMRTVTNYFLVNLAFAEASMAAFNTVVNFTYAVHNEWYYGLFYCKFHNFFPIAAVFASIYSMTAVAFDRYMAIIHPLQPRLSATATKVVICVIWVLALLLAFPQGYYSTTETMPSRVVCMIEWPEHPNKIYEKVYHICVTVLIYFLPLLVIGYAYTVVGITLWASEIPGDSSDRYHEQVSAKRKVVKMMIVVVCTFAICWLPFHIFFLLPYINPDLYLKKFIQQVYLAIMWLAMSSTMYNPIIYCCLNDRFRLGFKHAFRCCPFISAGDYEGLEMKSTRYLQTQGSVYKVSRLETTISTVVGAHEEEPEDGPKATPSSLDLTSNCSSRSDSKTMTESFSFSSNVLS

With `CSCC[C@H](NC(=O)[C@H](CC(C)C)NC(=O)CNC(=O)[C@H](CC(=O)O)N(C)C(=O)[C@H](Cc1ccccc1)NC(=O)[C@H](CC(=O)O)NC(=O)CCC(=O)O)C(N)=O` (Suc-DF[NMeD]GLM-NH2) the IC50 [1] was > 10000 nM.

For `CC[C@H](C)[C@@H](C(=O)NCC(=O)N[C@@H](CC(C)C)C(=O)N[C@@H](CCSC)C(N)=O)N(C)C(=O)[C@H](Cc1ccccc1)NC(=O)[C@H](CC(=O)O)NC(=O)CCC(=O)O` (Suc-DF[NMeI]GLM-NH2), the IC50 [1] was 91 nM, the IC50 [2] was > 10000 nM and the IC50 [3] was > 10000 nM. For the same compound, the EC50 [4] was 0.05 nM.

For `CSCC[C@H](NC(=O)[C@H](CC(C)C)NC(=O)CNC(=O)[C@H](Cc1ccccc1)N(C)C(=O)[C@H](Cc1ccccc1)NC(=O)[C@H](CC(=O)O)NC(=O)[C@@H](N)CC(=O)O)C(N)=O` (H-DDF[NMeF]GLM-NH2), the IC50 [1] was 175 nM, the IC50 [2] was > 10000 nM and the IC50 [3] was > 10000 nM. For the same compound, the EC50 [4] was 0.063 nM.

`CSCC[C@H](NC(=O)[C@H](CC(C)C)NC(=O)CNC(=O)[C@H](Cc1ccccc1)N(C)C(=O)[C@H](Cc1ccccc1)NC(=O)[C@@H](CCC(=O)O)NC(=O)CCC(=O)O)C(N)=O` was tested, and the IC50 [1] was 24 nM, the IC50 [2] was > 10000 nM and the IC50 [3] was > 10000 nM. The EC50 [4] was 0.084 nM.

With `CSCC[C@H](NC(=O)[C@H](CC(C)C)NC(=O)CNC(=O)[C@H](Cc1ccccc1)N(C)C(=O)[C@H](Cc1ccccc1)NC(=O)[C@H](CCCC(=O)O)NC(=O)CCC(=O)O)C(N)=O` (Suc-[Aad]F[NMeF]GLM-NH2) the IC50 [1] was 9.9 nM, the Ratio EC50 [5] was 2 and the IC50 [2] was > 10000 nM. For the same compound, the IC50 [3] was > 10000 nM and the EC50 [4] was 0.019 nM.

For `CSCC[C@H](NC(=O)[C@H](CC(C)C)NC(=O)CNC(=O)[C@H](Cc1ccccc1)N(C)C(=O)[C@H](Cc1ccccc1)NC(=O)[C@H](CC(=O)O)NC(N)=O)C(N)=O` (X1-F[NMeF]GLM-NH2), the IC50 [1] was 39 nM, the IC50 [2] was > 10000 nM and the IC50 [3] was > 10000 nM. The EC50 [4] was 0.013 nM.

With `COC(=O)C(=O)N[C@@H](CC(=O)O)C(=O)N[C@@H](Cc1ccccc1)C(=O)N(C)[C@@H](Cc1ccccc1)C(=O)NCC(=O)N[C@@H](CC(C)C)C(=O)N[C@@H](CCSC)C(N)=O` (Methoxyoxalyl-DF[NMeF]GLM-NH2) the IC50 [1] was 4.1 nM, the IC50 [2] was > 10000 nM and the IC50 [3] was > 10000 nM. For the same compound, the EC50 [4] was 0.0029 nM.

For `CSCC[C@H](NC(=O)[C@H](CC(C)C)NC(=O)CNC(=O)[C@H](Cc1ccccc1)N(C)C(=O)[C@H](Cc1ccccc1)NC(=O)[C@H](CCC(=O)O)NC(=O)[C@H](CC(=O)O)NC(C)=O)C(N)=O`, the IC50 [1] was 7.7 nM, the Ratio EC50 [5] was 3 and the IC50 [2] was > 10000 nM. The Ratio IC50 [6] was 5, the IC50 [3] was > 10000 nM and the EC50 [4] was 0.0081 nM.

In the case of `CSCC[C@H](NC(=O)[C@H](CC(C)C)NC(=O)CNC(=O)[C@H](C(C)C)N(C)C(=O)[C@H](Cc1ccccc1)NC(=O)[C@H](CC(=O)O)NC(=O)CCC(=O)O)C(N)=O` (Suc-DF[NMeV]GLM-NH2), the IC50 [1] is reported as 104 nM, the IC50 [2] is reported as > 10000 nM and the IC50 [3] is reported as > 10000 nM. It also gave an EC50 [4] of 0.064 nM.

In the case of `CSCC[C@H](NC(=O)[C@H](CC(C)C)NC(=O)CNC(=O)[C@H](Cc1ccccc1)N(C)C(=O)[C@H](Cc1ccccc1)NC(=O)[C@@H](CC(=O)O)NC(=O)[C@H](CC(=O)O)NC(C)=O)C(N)=O`, the IC50 [1] is reported as 83 nM, the IC50 [2] is reported as > 10000 nM and the IC50 [3] is reported as > 10000 nM. For the same compound, the EC50 [4] was 0.024 nM.

For `CSCC[C@H](NC(=O)[C@H](CC(C)C)NC(=O)CNC(=O)[C@H](Cc1ccccc1)N(C)C(=O)[C@H](Cc1ccccc1)NC(=O)[C@@H](CC(=O)O)NC(=O)C(=O)O)C(N)=O`, the IC50 [1] was 3.5 nM, the IC50 [2] was > 10000 nM and the Ratio IC50 [6] was 10. For the same compound, the IC50 [3] was > 10000 nM and the EC50 [4] was 0.022 nM.

In the case of `CSCC[C@H](NC(=O)[C@H](CC(C)C)NC(=O)CNC(=O)[C@H](Cc1ccccc1)N(C)C(=O)[C@H](Cc1ccccc1)NC(=O)[C@H](CC(=O)O)NC(=O)C(=O)O)C(N)=O`, the IC50 [1] is reported as 3.6 nM, the IC50 [2] is reported as > 10000 nM and the Ratio IC50 [6] is reported as 10. The IC50 [3] was > 10000 nM and the EC50 [4] was 0.083 nM.

For `CSCC[C@H](NC(=O)[C@H](CC(C)C)NC(=O)CNC(=O)[C@H](CC(C)C)N(C)C(=O)[C@H](Cc1ccccc1)NC(=O)[C@H](CC(=O)O)NC(=O)CCC(=O)O)C(N)=O` (Suc-DF[NMeL]GLM-NH2), the IC50 [1] was > 10000 nM.
